Values joined by “and” are separate entries in the source; they are usually repeats but may differ in a detail not shown here. Identical values can stand only once. Toxic doses and inconclusive results are not listed. Rule for the calls: active = survival T/C of 150% or more; inactive = T/C below 125% in these data.
System: CD2F1 mice, L1210 leukemia ip, survival T/C
Assay: NCI In Vivo Anticancer Drug Screen. Data for tumor model L1210 Leukemia (intraperitoneal) in CD2F1 (CDF1) mice
Conditions: endpoint: mean survival time, higher = longer survival
Method in brief: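 Transplantable tumor in mice; compound-treated vs vehicle-treated groups. Read-out = treated/control ratio of the measured endpoint.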

[1] = dose: 25.0 mg/kg/injection, schedule: Q04DX003 (ip), vehicle: saline with Tween-80
[2] = dose: 50.0 mg/kg/injection, schedule: Q04DX003 (ip), vehicle: saline with Tween-80
[3] = dose: 100.0 mg/kg/injection, schedule: Q04DX003 (ip), vehicle: saline with Tween-80
[4] = dose: 50.0 mg/kg/injection, schedule: Q04DX002 (ip), vehicle: saline with Tween-80
[5] = dose: 100.0 mg/kg/injection, schedule: Q04DX002 (ip), vehicle: saline with Tween-80
[6] = dose: 200.0 mg/kg/injection, schedule: Q04DX002 (ip), vehicle: saline with Tween-80
[7] = dose: 100.0 mg/kg/injection, schedule: Q01DX009 (ip), vehicle: saline with Tween-80
[8] = dose: 200.0 mg/kg/injection, schedule: Q01DX009 (ip), vehicle: saline with Tween-80
[9] = dose: 200.0 mg/kg/injection, schedule: Q04DX003 (ip), vehicle: saline with Tween-80
[10] = dose: 400.0 mg/kg/injection, schedule: Q01DX009 (ip), vehicle: saline with Tween-80
[11] = dose: 400.0 mg/kg/injection, schedule: Q04DX003 (ip), vehicle: saline with Tween-80
[12] = dose: 100.0 mg/kg/injection, schedule: Q01DX001 (ip), vehicle: saline with Tween-80
[13] = dose: 200.0 mg/kg/injection, schedule: Q01DX001 (ip), vehicle: saline with Tween-80
[14] = dose: 25.0 mg/kg/injection, schedule: Q01DX009 (ip), vehicle: saline with Tween-80
[15] = dose: 50.0 mg/kg/injection, schedule: Q01DX009 (ip), vehicle: saline with Tween-80
[16] = dose: 100.0 mg/kg/injection, schedule: Q04DX003 (ip), vehicle: saline
[17] = dose: 200.0 mg/kg/injection, schedule: Q04DX003 (ip), vehicle: saline
[18] = dose: 400.0 mg/kg/injection, schedule: Q04DX003 (ip), vehicle: saline
[19] = dose: 400.0 mg/kg/injection, schedule: Q01DX001 (ip), vehicle: saline with Tween-80

Measured: T/C

O=c1oc(-c2ccc(Cl)cc2)nc2cc(Cl)ccc12
inactive: [1] 93 % of control | [2] 93 % of control | [3] 86 % of control and 89 % of control

COc1cc[c-]cc1.[C-]#[O+].[C-]#[O+].[Fe+6].[c-]1[c-][c-][cH-][c-]1
inactive: [4] 102 % of control | [5] 102 % of control | [6] 97 % of control

CC(=O)Oc1ccc(N2C(=O)C=CC2=O)cc1 (tested in a mixture with another compound)
inactive: [7] 95 % of control | [3] 91 % of control | [8] 91 % of control | [9] 90 % of control | [10] 91 % of control | [11] 87 % of control

C1CCC(N(C2CCCCC2)C2CCCCC2)CC1
inactive: [12] 107 % of control | [13] 104 % of control | dose: 300.0 mg/kg/injection, schedule: Q01DX001 (ip), vehicle: saline with Tween-80 96 % of control

C[n+]1cc(Br)c2ccccc2c1
inactive: dose: 75.0 mg/kg/injection, schedule: Q01DX001 (ip), vehicle: saline 100 % of control | dose: 150.0 mg/kg/injection, schedule: Q01DX001 (ip), vehicle: saline 103 % of control

[Cl][Pt+2][Cl].[NH-]c1cc(F)ccc1F.[NH-]c1cc(F)ccc1F
inactive: dose: 3.13 mg/kg/injection, schedule: Q04DX003 (ip), vehicle: distilled water + Tween-80 112 % of control | dose: 6.25 mg/kg/injection, schedule: Q04DX003 (ip), vehicle: distilled water + Tween-80 110 % of control | dose: 12.5 mg/kg/injection, schedule: Q04DX003 (ip), vehicle: distilled water + Tween-80 112 % of control | dose: 25.0 mg/kg/injection, schedule: Q04DX003 (ip), vehicle: distilled water + Tween-80 120 % of control | dose: 50.0 mg/kg/injection, schedule: Q04DX003 (ip), vehicle: distilled water + Tween-80 110 % of control

CCCCCC[Si]
inactive: dose: 75.0 mg/kg/injection, schedule: Q01DX009 (ip), vehicle: saline with Tween-80 94 % of control | dose: 150.0 mg/kg/injection, schedule: Q01DX009 (ip), vehicle: saline with Tween-80 94 % of control | dose: 300.0 mg/kg/injection, schedule: Q01DX009 (ip), vehicle: saline with Tween-80 98 % of control

Cc1ccc(C(=O)/C=C/c2ccc(N(C)C)cc2)cc1
inactive: [3] 87 % of control | [9] 87 % of control | [11] 89 % of control

Cc1cc(N(CCCl)CCCl)ccc1C1N(Cc2ccc(N(C)C)cc2)CCCN1Cc1ccc(N(C)C)cc1
inactive: [7] 101 % of control | [3] 98 % of control | [8] 101 % of control | [9] 101 % of control | [10] 108 % of control | [11] 108 % of control

CC(C)N(C=C(C#N)C#N)C(C)C
inactive: dose: 12.5 mg/kg/injection, schedule: Q01DX009 (ip), vehicle: saline with Tween-80 91 % of control | dose: 25.0 mg/kg/injection, schedule: Q01DX001 (ip), vehicle: saline with Tween-80 103 % of control | [14] 96 % of control | dose: 50.0 mg/kg/injection, schedule: Q01DX001 (ip), vehicle: saline with Tween-80 107 % of control | [12] 98 % of control

CC(C)CC(C)OP(=S)(S)OC(C)CC(C)C.[Cd] (configuration not stated)
inactive: dose: 6.25 mg/kg/injection, schedule: Q04DX002 (ip), vehicle: saline 93 % of control | dose: 12.5 mg/kg/injection, schedule: Q04DX002 (ip), vehicle: saline 104 % of control | dose: 25.0 mg/kg/injection, schedule: Q04DX002 (ip), vehicle: saline with Tween-80 100 % of control | dose: 25.0 mg/kg/injection, schedule: Q04DX002 (ip), vehicle: saline 93 % of control | [4] 88 % of control

O=C1C=CC(=O)N1CO (tested in a mixture with another compound)
inactive: [7] 98 % of control | [8] 98 % of control | [10] 93 % of control

CCOCCC(=O)NCc1ccccc1
inactive: [3] 100 % of control | [9] 98 % of control | [11] 102 % of control

CCN(CC)C(=S)SCCSC(=S)N(CC)CC
inactive: [5] 92 % of control | [6] 106 % of control | dose: 400.0 mg/kg/injection, schedule: Q04DX002 (ip), vehicle: saline with Tween-80 89 % of control

CC1C(=O)OC(C)(C)C1(C)C (configuration not stated)
inactive: [14] 98 % of control | [15] 98 % of control | [3] 104 % of control

Cc1ccc(S(=O)(=O)CC(=O)N2CCOCC2)cc1
inactive: [16] 102 % of control | [17] 96 % of control | [18] 98 % of control

O=C1CCCCC1(c1ccccc1)c1ccccc1
inactive: [7] 101 % of control | [3] 101 % of control | [8] 97 % of control | [9] 99 % of control | [10] 98 % of control | [11] 97 % of control

COC(=O)C/C(=C/C=C1/C(=O)ON=C1C)c1c(C)[nH]oc1=O
inactive: dose: 100.0 mg/kg/injection, schedule: Q01DX009 (ip), vehicle: saline 87 % of control | [16] 101 % of control | dose: 200.0 mg/kg/injection, schedule: Q01DX009 (ip), vehicle: saline 92 % of control | [17] 106 % of control | dose: 400.0 mg/kg/injection, schedule: Q01DX009 (ip), vehicle: saline 87 % of control | [18] 108 % of control

CCOC(=O)NC(=S)Nc1ncn[nH]1
inactive: dose: 25.0 mg/kg/injection, schedule: Q01DX001 (ip), vehicle: carboxymethylcellulose (CMC) 102 % of control | dose: 50.0 mg/kg/injection, schedule: Q01DX001 (ip), vehicle: carboxymethylcellulose (CMC) 97 % of control | dose: 100.0 mg/kg/injection, schedule: Q01DX001 (ip), vehicle: carboxymethylcellulose (CMC) 97 % of control | dose: 200.0 mg/kg/injection, schedule: Q01DX001 (ip), vehicle: carboxymethylcellulose (CMC) 93 % of control

O=C(Nc1cccc(Cl)c1)Nc1ccccc1Cl
inactive: [1] 93 % of control | [2] 96 % of control | [3] 95 % of control | [9] 89 % of control | [11] 97 % of control

COc1ccc(C(O)C(C)c2ccc([N+](=O)[O-])cc2)cc1 (configuration not stated)
inactive: [12] 106 % of control | [7] 105 % of control | [13] 93 % of control | [8] 103 % of control | [19] 98 % of control | [10] 94 % of control

COc1cc2c(cc1OC)C[N+]1(C)CCc3cc(OC)c(OC)cc3C1C2 (configuration not stated)
inactive: dose: 5.0 mg/kg/injection, schedule: Q01DX001 (ip), vehicle: saline 97 % of control | dose: 10.0 mg/kg/injection, schedule: Q01DX001 (ip), vehicle: saline 93 % of control | dose: 20.0 mg/kg/injection, schedule: Q01DX001 (ip), vehicle: saline 103 % of control | dose: 40.0 mg/kg/injection, schedule: Q01DX001 (ip), vehicle: saline 97 % of control

COc1ccc(CCCC(=O)O)cc1
inactive: [12] 94 % of control | [13] 92 % of control | [19] 94 % of control

C=CCOC(=N)C(Cl)(Cl)Cl
inactive: [15] 106 % of control | [7] 95 % of control

CCOP(=O)(OCC)C(C)c1ccccc1 (configuration not stated)
inactive: [7] 100 % of control | [8] 94 % of control

— PubChem BioAssay AID256 (DTP/NCI, 2004)
